Measurements: US20240374546A1, “USES AND METHODS FOR PROMOTING INCREASED MITOCHONDRIAL MASS AND FUNCTION” (Brightseed, Inc., priority 2022, published 2024)

Assays:
HNF4α [1] = target: T1, HNF4α (Homo sapiens, UniProt P41235); settings: cited from earlier work
T1 sequence (P41235 1-474): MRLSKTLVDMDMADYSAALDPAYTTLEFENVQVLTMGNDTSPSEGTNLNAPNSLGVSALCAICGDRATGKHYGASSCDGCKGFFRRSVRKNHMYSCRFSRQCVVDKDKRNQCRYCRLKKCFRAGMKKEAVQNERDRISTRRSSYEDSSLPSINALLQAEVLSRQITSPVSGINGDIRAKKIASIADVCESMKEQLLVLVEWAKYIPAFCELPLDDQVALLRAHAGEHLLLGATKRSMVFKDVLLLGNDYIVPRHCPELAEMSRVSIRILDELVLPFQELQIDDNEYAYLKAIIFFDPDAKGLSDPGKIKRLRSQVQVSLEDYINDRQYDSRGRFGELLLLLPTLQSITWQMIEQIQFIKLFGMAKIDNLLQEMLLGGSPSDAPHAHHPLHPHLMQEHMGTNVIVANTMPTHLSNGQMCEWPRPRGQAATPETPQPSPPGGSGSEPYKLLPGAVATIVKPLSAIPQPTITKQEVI

palmitate-loaded cells = assay: Fat clearance from palmitate-loaded cells; type: cell-based; settings: in vitro
HNF4α [2] = target: T1, HNF4α; assay: Cell-based human insulin promoter reporter assay sensitive to HNF4α activity
Source text: HNF4α is a nuclear receptor transcription factor that controls the expression of downstream genes that are important in multiple aspects of cellular metabolism. The classical view of HNF4α has been that its ligand binding pocket (LBP) is constitutively occupied by a fatty acid that plays a structural rather than regulatory role. However, it has been shown recently that the fatty acids in the HNF4α LBP are exchangeable in the context of full length HNF4α, particularly inside the cell. […] Using the assay in high-throughput screening, it was discovered HNF4α antagonists and more recently agonists. […] Previously, it was shown that intraperitoneal (IP) administration of NCT reversed hepatic steatosis in obese mice fed a high fat diet through a previously unsuspected pathway involving regulation by HNF4α of dihydroceramide synthesis.

HNF4α agonist activity (HNF4α [2])	SMILES	HNF4α activator activity of known drugs (HNF4α [1])	fat clearance from palmitate-loaded cells (palmitate-loaded cells)
–	CC(Cc1cccc(C(F)(F)F)c1)NCCOC(=O)c1ccccc1 (stereo not shown) [benfluorex]	weak HNF4α activators	–
–	CCN(CCCc1ccccc1)CCCc1ccccc1 [alverine]	weak HNF4α activators	–
strong HNF4α agonists	COc1cc(/C=C/C(=O)NCCc2ccc(O)cc2)ccc1O [NFT, N-transferuloyltyramine]	–	induced fat clearance
